The source of these data is ChEMBL document CHEMBL1129775, “Synthesis and evaluation of novel 1,5-Benzodiazepines as potent and selective CCK-B ligands. Effect of the substitution of the N-5 phenyl with alkyl groups” (Bioorg Med Chem Lett, 1996).

Assay [1] addresses T1, Cholecystokinin receptor type A (Rattus norvegicus, UniProt P30551).
T1 sequence (P30551 whole entry): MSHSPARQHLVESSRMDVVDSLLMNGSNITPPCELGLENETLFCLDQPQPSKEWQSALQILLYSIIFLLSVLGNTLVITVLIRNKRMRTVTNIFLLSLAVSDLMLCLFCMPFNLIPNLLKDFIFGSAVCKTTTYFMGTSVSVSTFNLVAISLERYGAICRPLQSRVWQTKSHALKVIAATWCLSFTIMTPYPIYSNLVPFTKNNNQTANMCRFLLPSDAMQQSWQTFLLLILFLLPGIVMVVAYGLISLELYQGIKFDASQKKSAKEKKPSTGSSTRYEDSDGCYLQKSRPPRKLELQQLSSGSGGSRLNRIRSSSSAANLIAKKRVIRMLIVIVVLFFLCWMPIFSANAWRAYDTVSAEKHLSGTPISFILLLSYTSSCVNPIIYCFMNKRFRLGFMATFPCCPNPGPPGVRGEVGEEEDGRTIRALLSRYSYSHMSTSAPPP
Briefly: Evaluated in vitro for Cholecystokinin type A receptor affinity by measuring its ability to displace tritiated CCK-8S bound on rat pancreas Cholecystokinin type A receptor.

Assay [2] is filed under the species Rattus norvegicus. Briefly: Ratio of CCK-B receptor affinity and CCK-A receptor affinity.

By Ki is commonly meant the equilibrium dissociation constant of an inhibitor or competing ligand from its target. In assay [1], `CC(C)CCN1C(=O)C(NC(=O)Nc2ccccc2)C(=O)N(Cc2ccccc2)c2ccccc21` (stereo unspecified) showed an inhibitory constant (Ki) of 66.1 nM. The Ratio in assay [2] was 17. In the case of `CC(C)CCN1C(=O)C(NC(=O)Oc2cccc(N(C)C)c2)C(=O)N(CCC(C)C)c2ccccc21`, the inhibitory constant (Ki) in assay [1] was 794 nM. In addition, in assay [2], the Ratio is 28.

For `O=C(Nc1ccccc1)NC1C(=O)N(CC23CC4CC(CC(C4)C2)C3)c2ccccc2N(CC23CC4CC(CC(C4)C2)C3)C1=O` (stereo unspecified), the Ki in assay [1] was 2000 nM. Also, in assay [2], the Ratio is 58. For `O=C(Nc1cccc(Cl)c1)NC1C(=O)N(CC23CC4CC(CC(C4)C2)C3)c2ccccc2N(C2CCCCC2)C1=O` (stereo unspecified) the same measures were 240 nM and 22.

`CC(C)CCN1C(=O)C(NC(=O)Nc2ccccc2)C(=O)N(CC23CC4CC(CC(C4)C2)C3)c2ccccc21` (stereo unspecified) had a Ki in assay [1] of 288 nM. The Ratio in assay [2] was found to be 209. The compound `O=C(Nc1ccccc1)NC1C(=O)N(CC23CC4CC(CC(C4)C2)C3)c2ccccc2N(C2CCCCC2)C1=O` (stereo unspecified) had a Ki in assay [1] of 562 nM. Moreover, the Ratio in assay [2] worked out at 234. Compound `CC(C)CCN1C(=O)C(NC(=O)Oc2ccccc2)C(=O)N(CC23CC4CC(CC(C4)C2)C3)c2ccccc21` (stereo unspecified) showed a Ki in assay [1] of 1410 nM. In addition, in assay [2], the Ratio is 42.

`CC(CC1CCCC1)N1C(=O)C(NC(=O)Nc2ccccc2)C(=O)N(C(C)CC2CCCC2)c2ccccc21` (stereo unspecified) had a Ki in assay [1] of 229 nM. In assay [1], `CC(C)CCN1C(=O)C(NC(=O)Nc2cccc(N(C)C)c2)C(=O)N(CC23CC4CC(CC(C4)C2)C3)c2ccccc21` (stereo unspecified) showed a Ki of 955 nM. Besides, the Ratio in assay [2] was determined as 170. With `O=C(NC1C(=O)N(CC23CC4CC(CC(C4)C2)C3)c2ccccc2N(C2CCCCC2)C1=O)Oc1ccccc1` (stereo unspecified), affinity in assay [1] was put at a Ki of 1100 nM. The Ratio in assay [2] amounted to 26.

Compound `O=C(Nc1ccccc1)N[C@@H]1C(=O)N(CC23CC4CC(CC(C4)C2)C3)c2ccccc2N(c2ccccc2)C1=O` (single isomer, unassigned; (+)) gave a Ki in assay [1] of 1120 nM. In turn, `CC(C)CCN1C(=O)C(NC(=O)Oc2cccc(N(C)C)c2)C(=O)N(CC23CC4CC(CC(C4)C2)C3)c2ccccc21` (stereo unspecified) showed a Ki in assay [1] of 1580 nM. Besides, in assay [2], the Ratio was found to be 209. Compound `CC(C)CCN1C(=O)C(NC(=O)Nc2ccccc2)C(=O)N(CCC(C)C)c2ccccc21` showed an inhibition constant Ki in assay [1] of 61.7 nM. The Ratio in assay [2] stood at 26. The matching figures for `CC(C)CCN1C(=O)C(NC(=O)Nc2cccc(N(C)C)c2)C(=O)N(CCC(C)C)c2ccccc21`: 83.2 nM and 32.
